Experimental data: patent US10087165B2, “Fluoroquinolones and use thereof to treat bacterial infections” (UNIVERSITÉ PIERRE ET MARIE CURIE—PARIS 6 (UPMC), priority 2014, dated 2018)
Converted amounts (≈) assume the structure as drawn. Like-named read-outs stand apart in the source and are kept apart here.

Experiments:
[1] = system: M. tuberculosis H37Rv; assay: microbe, parasite or virus in culture; assay type: cell-based; set-up: MIC against wild-type M. tuberculosis strain (below moxifloxacin MIC): unit not given beside the values; settings: for MIC: Mycobacterium tuberculosis
[2] = biological target: T1, M. tuberculosis DNA gyrase (Mycobacterium tuberculosis, UniProt P9WG45+P9WG47); assay: biochemical
[3] = system: M. tuberculosis H37Rv; settings: Table 2, published previously (Poissy et al. 2010); cited from earlier work
[4] = biological target: T1, M. tuberculosis DNA gyrase; set-up: made in house; settings: Table 2; published previously (Poissy et al. 2010); cited from earlier work
[5] = system: M. tuberculosis H37Rv strain; assay: Minimal effective dosage in the murine TB model; assay type: in vivo, Balb/C/J female mice; settings: 25 mg/kg/j, Gavage
Experimental: Four-week-old Balb/C/J female mice were infected intravenously with 10^6 CFU of M. tuberculosis H37Rv strain. On the day following the infection (D1), 10 mice were sacrificed to determine the exact baseline values of spleen weight and CFU counts in the lungs. The remaining mice were allocated to the following treatment groups: an untreated negative control group for survival monitoring, a positive control group treated for 1 month with isoniazid (INH) 25 mg/kg/d, […] test groups were treated with Quin18 and Quin19 at increasing dosages (25 mg/kg/d; 50 mg/kg/d; 100 mg/kg/d; 150 mg/kg/d) given by oral gavage, and two additional test groups were treated intravenously with Quin18 25 mg/kg/d and 100 mg/kg/d. All the groups contained 10 mice and were treated from D1 to D28, 5 days a week. The parameters used for assessing the severity of infection and the effectiveness of treatments were survival rate, spleen weight, gross lung lesions and CFU counts in the lungs.
The minimal effective dosage was defined as the minimal dosage able to prevent mortality of the mice, spleen enlargement and the occurrence of gross lung lesions. CFU counts were considered to be a more precise way of determining the dose-ranging efficacy of Quin18 and Quin19.
Survival rates between groups were plotted on a Kaplan-Meier curve and compared using the log-rank test.

[6] = H37RV, Table 3, read-out: MIC M. tuberculosis H37Rv
[7] = H37Rv, Table 2, read-out: MIC (M. tuberculosis) WT

T1 sequence (P9WG47 whole entry): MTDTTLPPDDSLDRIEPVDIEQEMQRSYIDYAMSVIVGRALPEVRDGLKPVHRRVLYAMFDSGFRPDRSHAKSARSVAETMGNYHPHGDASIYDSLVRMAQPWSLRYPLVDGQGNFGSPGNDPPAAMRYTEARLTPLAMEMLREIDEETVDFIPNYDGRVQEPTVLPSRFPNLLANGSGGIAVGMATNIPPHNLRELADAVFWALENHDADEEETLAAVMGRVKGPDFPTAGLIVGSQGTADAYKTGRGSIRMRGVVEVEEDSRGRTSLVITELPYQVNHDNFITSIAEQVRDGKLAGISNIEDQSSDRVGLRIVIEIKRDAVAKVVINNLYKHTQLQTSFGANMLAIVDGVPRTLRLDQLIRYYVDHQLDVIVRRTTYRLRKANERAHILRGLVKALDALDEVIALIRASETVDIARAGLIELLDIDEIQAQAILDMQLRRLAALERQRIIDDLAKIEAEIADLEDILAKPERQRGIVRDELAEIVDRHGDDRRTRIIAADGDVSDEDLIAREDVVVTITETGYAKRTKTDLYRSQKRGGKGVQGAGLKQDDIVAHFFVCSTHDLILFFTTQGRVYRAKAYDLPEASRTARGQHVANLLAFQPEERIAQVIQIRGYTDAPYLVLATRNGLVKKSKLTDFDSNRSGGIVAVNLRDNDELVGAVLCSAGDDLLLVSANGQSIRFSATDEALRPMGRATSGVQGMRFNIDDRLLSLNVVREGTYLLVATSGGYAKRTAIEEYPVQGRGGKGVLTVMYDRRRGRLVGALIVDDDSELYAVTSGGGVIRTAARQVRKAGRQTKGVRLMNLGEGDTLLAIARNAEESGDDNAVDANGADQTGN
T1 sequence (P9WG45 whole entry): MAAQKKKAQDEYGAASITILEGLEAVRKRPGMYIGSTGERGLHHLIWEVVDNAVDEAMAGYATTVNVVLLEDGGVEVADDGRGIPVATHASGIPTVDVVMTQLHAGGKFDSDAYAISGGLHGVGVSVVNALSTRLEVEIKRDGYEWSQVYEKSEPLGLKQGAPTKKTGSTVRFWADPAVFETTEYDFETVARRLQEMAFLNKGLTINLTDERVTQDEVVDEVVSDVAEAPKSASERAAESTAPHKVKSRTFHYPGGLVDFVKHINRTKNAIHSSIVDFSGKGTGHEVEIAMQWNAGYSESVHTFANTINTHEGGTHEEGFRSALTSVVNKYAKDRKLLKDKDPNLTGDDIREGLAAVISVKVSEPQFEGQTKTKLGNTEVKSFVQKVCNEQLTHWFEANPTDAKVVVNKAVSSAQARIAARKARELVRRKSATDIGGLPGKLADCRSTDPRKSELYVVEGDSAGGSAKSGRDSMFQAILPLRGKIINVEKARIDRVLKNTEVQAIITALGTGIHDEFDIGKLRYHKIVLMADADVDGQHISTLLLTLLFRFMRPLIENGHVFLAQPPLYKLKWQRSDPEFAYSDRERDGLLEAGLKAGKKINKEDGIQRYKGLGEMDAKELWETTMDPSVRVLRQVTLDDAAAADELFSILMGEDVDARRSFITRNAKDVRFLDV

| SMILES | MIC [1, 6] | MIC [1, 7] | IC50 [2] | further results |
| --- | --- | --- | --- | --- |
| CCCCCCCCCCCCN1CCN(c2c(F)cc3c(=O)c(C(=O)O)cn(C4CC4)c3c2OC)CC1 [Compound 20, 1-cyclopropyl-7-(4-dodecylpiperazin-1-yl)-6-fluoro-8-methoxy-4-oxo-1,4-dihydroquinoline-3-carboxylic acid] | 0.47 µM (≈ 0.249 µg/mL) | – | – | – |
| CCCCCCCCCCN1CCN(c2cc3c(cc2F)c(=O)c(C(=O)O)cn3C2CC2)CC1 [Quin 9, 1-cyclopropyl-7-(4-decylpiperazin-1-yl)-6-fluoro-4-oxo-1,4-dihydroquinoline-3-carboxylic acid] | – | 0.5 µM (≈ 0.236 µg/mL) | 120 µM | – |
| CCCCCCCCCCCCCCCCN1CCN(c2cc3c(cc2F)c(=O)c(C(=O)O)cn3C2CC2)CC1 [Quin 10, 1-cyclopropyl-6-fluoro-7-(4-hexadecylpiperazin-1-yl)-4-oxo-1,4-dihydroquinoline-3-carboxylic acid] | – | 57 µM (≈ 31.7 µg/mL) | 105 µM | – |
| CCCCCCCN1CCN(c2c(F)cc3c(=O)c(C(=O)O)cn(C4CC4)c3c2OC)CC1 [Compound 15, 1-cyclopropyl-6-fluoro-7-(4-heptylpiperazin-1-yl)-8-methoxy-4-oxo-1,4-dihydroquinoline-3-carboxylic acid] | 2.2 µM (≈ 1.01 µg/mL) | – | – | – |
| COc1c(N2C[C@@H]3CCCN[C@@H]3C2)c(F)cc2c(=O)c(C(=O)O)cn(C3CC3)c12 [Moxifloxacin, moxifloxacin, reference compound] | 1.2 µM (≈ 0.482 µg/mL) | – | – | MIC against wild-type M. tuberculosis strain (below moxifloxacin MIC) ([1]; Table 3): 1.2 |
| CCCCCCCCCCCN1CCN(c2c(F)cc3c(=O)c(C(=O)O)cn(C4CC4)c3c2OC)CC1 [Compound 19, 1-cyclopropyl-6-fluoro-8-methoxy-4-oxo-7-(4-undecylpiperazin-1-yl)-1,4-dihydroquinoline-3-carboxylic acid] | 0.25 µM (≈ 0.129 µg/mL) | – | – | – |
| CCCCCCCCCCCCCCCCN1CCN(c2c(F)cc3c(=O)c(C(=O)O)cn(C4CC4)c3c2OC)CC1 [Quin 20, 1-cyclopropyl-6-fluoro-7-(4-hexadecylpiperazin-1-yl)-8-methoxy-4-oxo-1,4-dihydroquinoline-3-carboxylic acid] | – | 0.2 µM (≈ 0.117 µg/mL) | 121 µM | – |
| COc1c(N2CCNC(C)C2)c(F)cc2c(=O)c(C(=O)O)cn(C3CC3)c12 (centres unmarked) [Gatifloxacin, gatifloxacin] | – | – | – | MIC (M. tuberculosis) WT [3]: 0.32 µM (≈ 0.12 µg/mL); IC50 [4]: 6.8 µM |
| CCCCCN1CCN(c2cc3c(cc2F)c(=O)c(C(=O)O)cn3C2CC2)CC1 [Quin 15, 1-cyclopropyl-6-fluoro-4-oxo-7-(4-pentylpiperazin-1-yl)-1,4-dihydroquinoline-3-carboxylic acid] | – | 6 µM (≈ 2.41 µg/mL) | 76 µM | – |
| NNC(=O)c1ccncc1 [Isoniazid, isoniazid, reference compound] | – | – | – | Spleen weight [5]: 237 ± 73.8 mg; Survival: No. death ([5]; D1 to D28, 5 days a week, 10 mice): 0 |
| CCCCCCCCCN1CCN(c2c(F)cc3c(=O)c(C(=O)O)cn(C4CC4)c3c2OC)CC1 [Compound 17, 1-cyclopropyl-6-fluoro-8-methoxy-7-(4-nonylpiperazin-1-yl)-4-oxo-1,4-dihydroquinoline-3-carboxylic acid] | 0.12 µM (≈ 0.0585 µg/mL) | – | – | – |
| O=C(O)c1cn(C2CC2)c2cc(N3CCNCC3)c(F)cc2c1=O [Ciprofloxacin, ciprofloxacin, reference compound] | – | 1.5 µM (≈ 0.497 µg/mL) | – | – |
| CCCCCN1CCN(c2c(F)cc3c(=O)c(C(=O)O)cn(C4CC4)c3c2OC)CC1 [Quin 17, 1-cyclopropyl-6-fluoro-8-methoxy-4-oxo-7-(4-pentylpiperazin-1-yl)-1,4-dihydroquinoline-3-carboxylic acid] | – | 3.5 µM (≈ 1.51 µg/mL) | 60 µM | – |
| CCCCCCCCN1CCN(c2cc3c(cc2F)c(=O)c(C(=O)O)cn3C2CC2)CC1 [Quin 16, 1-cyclopropyl-6-fluoro-7-(4-octylpiperazin-1-yl)-4-oxo-1,4-dihydroquinoline-3-carboxylic acid] | – | ≤ 0.2 µM | 135 µM | – |
